The results in this text go back to ChEMBL document CHEMBL5465560, “Selectivity Literature for EUbOPEN Chemogenomic Library” (2024).

Assay [1] deals with T1, Mitogen-activated protein kinase kinase kinase 2 (Homo sapiens) (UniProt Q9Y2U5).
T1 sequence (whole entry): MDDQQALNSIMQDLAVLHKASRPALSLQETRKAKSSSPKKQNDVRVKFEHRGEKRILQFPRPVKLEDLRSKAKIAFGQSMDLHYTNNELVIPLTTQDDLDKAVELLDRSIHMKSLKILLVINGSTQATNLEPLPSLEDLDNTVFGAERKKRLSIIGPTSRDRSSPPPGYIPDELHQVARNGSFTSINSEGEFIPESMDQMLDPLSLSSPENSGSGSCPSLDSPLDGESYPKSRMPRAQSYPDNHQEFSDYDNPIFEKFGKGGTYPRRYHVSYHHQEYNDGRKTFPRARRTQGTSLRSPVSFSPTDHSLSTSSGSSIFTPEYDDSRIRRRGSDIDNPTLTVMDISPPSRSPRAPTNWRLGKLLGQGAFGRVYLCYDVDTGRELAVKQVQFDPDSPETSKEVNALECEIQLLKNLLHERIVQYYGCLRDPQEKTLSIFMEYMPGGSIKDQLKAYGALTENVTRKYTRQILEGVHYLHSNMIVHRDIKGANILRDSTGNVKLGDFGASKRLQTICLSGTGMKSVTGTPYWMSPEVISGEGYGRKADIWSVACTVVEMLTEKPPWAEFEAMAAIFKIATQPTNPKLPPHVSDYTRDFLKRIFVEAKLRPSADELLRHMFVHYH
Kind of assay: Selectivity interaction (KinomeScan (DiscoverX)) EUB0000695a MAP3K2. As to conditions: at 100 nM.

The target of assay [2] is Ribosomal protein S6 kinase alpha-1 (Homo sapiens, UniProt Q15418). Description: Selectivity interaction (KinomeScan (DiscoverX)) EUB0000666a RPS6KA1. As to conditions: at 10 µM.
For assay [3], the target named is Phosphatidylinositol 4,5-bisphosphate 3-kinase catalytic subunit beta isoform (Homo sapiens) (UniProt P42338). Kind of assay: Selectivity interaction (KinomeScan (DiscoverX)) EUB0000666a PIK3CB. To be noted: at 10 µM.
Assay [4] addresses Proto-oncogene tyrosine-protein kinase Src (Homo sapiens, UniProt P12931). Description: Selectivity interaction (SelectScreen profiling (Invitrogen)) EUB0000607a SRC. As to conditions: at 2 µM.
Assay [5] addresses T2, Serine/threonine-protein kinase MAK (Homo sapiens) (UniProt P20794).
T2 sequence (whole entry): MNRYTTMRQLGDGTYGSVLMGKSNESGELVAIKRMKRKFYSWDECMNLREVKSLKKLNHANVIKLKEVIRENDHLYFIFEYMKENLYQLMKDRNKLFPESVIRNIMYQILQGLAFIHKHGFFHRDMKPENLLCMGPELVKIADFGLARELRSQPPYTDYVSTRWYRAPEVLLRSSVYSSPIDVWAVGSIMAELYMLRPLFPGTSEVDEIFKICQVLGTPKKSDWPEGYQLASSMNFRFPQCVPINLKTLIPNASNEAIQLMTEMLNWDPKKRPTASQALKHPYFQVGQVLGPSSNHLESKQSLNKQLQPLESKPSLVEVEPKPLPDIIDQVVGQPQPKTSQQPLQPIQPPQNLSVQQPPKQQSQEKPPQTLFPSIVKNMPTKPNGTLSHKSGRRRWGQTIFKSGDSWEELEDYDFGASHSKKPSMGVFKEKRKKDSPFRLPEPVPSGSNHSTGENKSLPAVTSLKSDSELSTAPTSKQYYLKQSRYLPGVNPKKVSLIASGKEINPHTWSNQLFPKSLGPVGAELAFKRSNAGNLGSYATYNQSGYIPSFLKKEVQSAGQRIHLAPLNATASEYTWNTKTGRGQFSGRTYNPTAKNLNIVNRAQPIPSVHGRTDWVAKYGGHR
Kind of assay: Selectivity interaction (KinomeScan (DiscoverX)) EUB0000607a MAK. To be noted: at 10 µM.

Assay [6] deals with BMP-2-inducible protein kinase (Homo sapiens) (UniProt Q9NSY1). To be noted: at 10 µM.
Assay [7] addresses T3, Ephrin type-B receptor 1 (Homo sapiens) (UniProt P54762).
T3 sequence (whole entry): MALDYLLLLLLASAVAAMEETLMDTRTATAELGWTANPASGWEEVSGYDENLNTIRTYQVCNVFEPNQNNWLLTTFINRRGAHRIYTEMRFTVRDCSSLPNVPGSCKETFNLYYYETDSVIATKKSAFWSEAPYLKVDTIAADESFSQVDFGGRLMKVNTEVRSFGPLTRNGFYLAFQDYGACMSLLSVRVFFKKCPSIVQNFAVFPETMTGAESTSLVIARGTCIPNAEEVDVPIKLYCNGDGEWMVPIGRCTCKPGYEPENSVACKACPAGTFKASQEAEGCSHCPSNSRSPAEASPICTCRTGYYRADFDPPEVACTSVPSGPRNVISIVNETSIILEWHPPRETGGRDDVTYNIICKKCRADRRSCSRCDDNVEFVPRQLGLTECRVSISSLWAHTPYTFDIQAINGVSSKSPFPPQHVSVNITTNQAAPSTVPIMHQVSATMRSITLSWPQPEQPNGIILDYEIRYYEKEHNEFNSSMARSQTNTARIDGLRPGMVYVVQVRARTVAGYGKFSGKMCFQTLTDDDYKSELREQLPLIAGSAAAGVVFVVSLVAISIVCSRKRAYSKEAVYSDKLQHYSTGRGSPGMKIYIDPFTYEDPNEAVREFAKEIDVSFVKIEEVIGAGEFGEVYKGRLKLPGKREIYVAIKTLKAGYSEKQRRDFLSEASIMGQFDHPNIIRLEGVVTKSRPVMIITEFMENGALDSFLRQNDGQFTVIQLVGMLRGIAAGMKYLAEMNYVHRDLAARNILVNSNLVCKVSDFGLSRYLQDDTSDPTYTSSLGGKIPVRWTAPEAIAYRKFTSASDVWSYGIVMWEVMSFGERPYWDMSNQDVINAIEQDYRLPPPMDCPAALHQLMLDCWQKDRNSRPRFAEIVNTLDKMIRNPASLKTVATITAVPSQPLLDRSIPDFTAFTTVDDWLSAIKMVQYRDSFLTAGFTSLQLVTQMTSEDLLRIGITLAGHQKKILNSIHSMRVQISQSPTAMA
Description: Selectivity interaction (ActivX KiNativ screen (kinase selectivity in THP-1 cell lysates)) EUB0000639a EPHB1. As to conditions: lysate. Type of assay: subcellular.

In assay [8] the target is Cyclin-dependent kinase 2/cyclin E (Homo sapiens) (UniProt P24864+P24941+O96020). Kind of assay: Selectivity interaction (Upstate Kinase Profiler service (Millipore)) EUB0000056c CDK2. Type of assay: protein-complex assay. As to conditions: at 1 µM.
The target in assay [9] is Calcium/calmodulin-dependent protein kinase type II subunit beta (Homo sapiens) (UniProt Q13554). Kind of assay: Selectivity interaction (KinomeScan (DiscoverX)) EUB0000618a CAMK2B. To be noted: at 10 µM.
Assay [10] concerns the target Tyrosine-protein kinase HCK (Homo sapiens) (UniProt P08631). Description: Selectivity interaction (KinomeScan (DiscoverX)) EUB0000092b HCK. To be noted: at 10 µM.
Assay [11] concerns Tyrosine-protein kinase ABL1 (Homo sapiens), P00519 [F317I]. Description: Selectivity interaction (KinomeScan (DiscoverX)) EUB0001079a ABL1. To be noted: at 1 µM.
Sequence of Tyrosine-protein kinase ABL1 (Homo sapiens), P00519 [F317I] (P00519 whole entry F317I): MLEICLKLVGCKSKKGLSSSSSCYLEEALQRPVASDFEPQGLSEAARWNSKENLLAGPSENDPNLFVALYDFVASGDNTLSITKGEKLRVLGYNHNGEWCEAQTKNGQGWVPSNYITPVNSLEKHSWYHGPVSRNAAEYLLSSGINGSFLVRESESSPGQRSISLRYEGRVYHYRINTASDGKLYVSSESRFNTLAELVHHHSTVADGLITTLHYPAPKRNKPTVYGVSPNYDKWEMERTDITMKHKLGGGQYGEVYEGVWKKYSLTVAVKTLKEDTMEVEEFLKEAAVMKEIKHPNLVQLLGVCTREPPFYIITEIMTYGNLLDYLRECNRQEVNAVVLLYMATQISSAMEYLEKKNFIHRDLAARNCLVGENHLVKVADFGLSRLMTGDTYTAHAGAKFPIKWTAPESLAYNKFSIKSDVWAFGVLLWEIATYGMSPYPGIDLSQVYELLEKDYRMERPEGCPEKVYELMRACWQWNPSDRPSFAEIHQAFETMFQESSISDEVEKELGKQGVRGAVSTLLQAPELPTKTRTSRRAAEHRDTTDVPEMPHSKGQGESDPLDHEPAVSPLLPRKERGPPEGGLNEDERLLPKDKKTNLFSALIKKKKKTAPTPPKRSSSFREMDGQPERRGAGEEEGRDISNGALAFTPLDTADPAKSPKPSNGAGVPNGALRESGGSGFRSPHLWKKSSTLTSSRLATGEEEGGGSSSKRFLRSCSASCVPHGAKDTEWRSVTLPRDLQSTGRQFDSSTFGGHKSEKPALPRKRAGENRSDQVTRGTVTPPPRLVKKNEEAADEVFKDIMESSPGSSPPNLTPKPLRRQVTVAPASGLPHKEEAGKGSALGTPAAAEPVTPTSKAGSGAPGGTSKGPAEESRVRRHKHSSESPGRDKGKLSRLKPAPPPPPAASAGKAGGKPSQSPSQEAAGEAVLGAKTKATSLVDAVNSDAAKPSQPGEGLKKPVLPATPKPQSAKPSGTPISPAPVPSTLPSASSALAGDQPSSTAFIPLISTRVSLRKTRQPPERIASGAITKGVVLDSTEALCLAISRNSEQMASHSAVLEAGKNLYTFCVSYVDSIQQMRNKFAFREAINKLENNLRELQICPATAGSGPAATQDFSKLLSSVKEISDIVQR

Sequence of Proto-oncogene tyrosine-protein kinase Src (P12931 2-536 limits assumed): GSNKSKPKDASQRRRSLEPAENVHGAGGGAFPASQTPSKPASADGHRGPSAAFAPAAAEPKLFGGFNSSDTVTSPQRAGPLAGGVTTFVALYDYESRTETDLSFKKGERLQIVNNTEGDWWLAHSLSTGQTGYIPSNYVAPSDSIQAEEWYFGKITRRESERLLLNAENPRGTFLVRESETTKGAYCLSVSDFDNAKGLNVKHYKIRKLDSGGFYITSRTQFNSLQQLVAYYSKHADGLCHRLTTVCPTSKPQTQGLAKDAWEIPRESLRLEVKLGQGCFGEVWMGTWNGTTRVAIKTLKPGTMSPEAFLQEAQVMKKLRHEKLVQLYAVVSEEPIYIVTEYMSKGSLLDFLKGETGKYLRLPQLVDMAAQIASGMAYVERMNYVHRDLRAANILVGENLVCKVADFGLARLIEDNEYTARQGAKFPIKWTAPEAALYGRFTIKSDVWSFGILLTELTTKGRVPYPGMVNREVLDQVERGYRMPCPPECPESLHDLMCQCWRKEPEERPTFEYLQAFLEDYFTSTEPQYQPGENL
Sequence of Phosphatidylinositol 4,5-bisphosphate 3-kinase catalytic subunit beta isoform (Homo sapiens) (P42338 whole entry, looked up, canonical isoform): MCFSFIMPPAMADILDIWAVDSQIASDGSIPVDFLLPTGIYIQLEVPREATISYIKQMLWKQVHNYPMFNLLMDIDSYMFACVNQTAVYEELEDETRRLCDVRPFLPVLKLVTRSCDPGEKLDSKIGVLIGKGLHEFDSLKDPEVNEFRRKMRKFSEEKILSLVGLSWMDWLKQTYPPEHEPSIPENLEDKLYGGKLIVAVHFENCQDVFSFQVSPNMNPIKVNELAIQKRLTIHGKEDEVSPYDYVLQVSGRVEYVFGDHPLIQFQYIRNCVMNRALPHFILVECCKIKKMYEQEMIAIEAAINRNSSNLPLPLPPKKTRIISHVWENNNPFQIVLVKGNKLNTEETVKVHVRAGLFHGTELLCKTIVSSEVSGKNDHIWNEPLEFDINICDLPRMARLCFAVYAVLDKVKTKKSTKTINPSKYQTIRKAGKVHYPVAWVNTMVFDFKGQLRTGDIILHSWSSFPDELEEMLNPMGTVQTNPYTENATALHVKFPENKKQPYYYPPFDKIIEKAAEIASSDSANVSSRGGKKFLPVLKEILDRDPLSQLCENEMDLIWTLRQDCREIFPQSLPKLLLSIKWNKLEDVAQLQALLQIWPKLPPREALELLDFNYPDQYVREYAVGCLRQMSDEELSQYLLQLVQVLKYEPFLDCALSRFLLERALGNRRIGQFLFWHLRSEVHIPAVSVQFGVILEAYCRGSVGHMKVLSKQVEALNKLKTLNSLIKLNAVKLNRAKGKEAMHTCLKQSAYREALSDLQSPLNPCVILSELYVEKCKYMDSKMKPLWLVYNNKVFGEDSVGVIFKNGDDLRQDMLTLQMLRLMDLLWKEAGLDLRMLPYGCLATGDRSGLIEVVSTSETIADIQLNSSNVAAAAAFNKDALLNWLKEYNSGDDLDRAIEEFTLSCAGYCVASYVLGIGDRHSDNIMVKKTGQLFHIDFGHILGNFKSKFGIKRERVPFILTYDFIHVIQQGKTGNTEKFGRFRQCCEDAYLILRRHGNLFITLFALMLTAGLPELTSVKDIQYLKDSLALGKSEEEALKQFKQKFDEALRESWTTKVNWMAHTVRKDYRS
Sequence of Calcium/calmodulin-dependent protein kinase type II subunit beta (Homo sapiens) (Q13554 whole entry): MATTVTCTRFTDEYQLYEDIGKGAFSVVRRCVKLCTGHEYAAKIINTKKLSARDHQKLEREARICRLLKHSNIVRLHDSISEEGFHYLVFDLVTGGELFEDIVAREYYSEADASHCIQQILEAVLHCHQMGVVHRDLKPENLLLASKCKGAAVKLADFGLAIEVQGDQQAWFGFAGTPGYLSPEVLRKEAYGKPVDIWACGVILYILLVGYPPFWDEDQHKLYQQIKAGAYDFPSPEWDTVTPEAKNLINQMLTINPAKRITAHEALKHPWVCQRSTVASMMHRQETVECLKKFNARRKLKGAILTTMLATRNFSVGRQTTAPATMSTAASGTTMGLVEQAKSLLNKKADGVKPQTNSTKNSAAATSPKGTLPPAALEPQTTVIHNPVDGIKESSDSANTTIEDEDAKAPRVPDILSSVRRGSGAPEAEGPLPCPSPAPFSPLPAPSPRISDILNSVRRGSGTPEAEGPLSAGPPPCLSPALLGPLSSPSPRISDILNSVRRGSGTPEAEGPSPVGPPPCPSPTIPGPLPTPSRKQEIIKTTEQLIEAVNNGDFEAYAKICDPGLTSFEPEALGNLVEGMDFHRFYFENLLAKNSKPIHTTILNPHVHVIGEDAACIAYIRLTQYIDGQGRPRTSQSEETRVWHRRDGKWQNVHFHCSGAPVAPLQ
Sequence of BMP-2-inducible protein kinase (Homo sapiens) (Q9NSY1 whole entry, looked up): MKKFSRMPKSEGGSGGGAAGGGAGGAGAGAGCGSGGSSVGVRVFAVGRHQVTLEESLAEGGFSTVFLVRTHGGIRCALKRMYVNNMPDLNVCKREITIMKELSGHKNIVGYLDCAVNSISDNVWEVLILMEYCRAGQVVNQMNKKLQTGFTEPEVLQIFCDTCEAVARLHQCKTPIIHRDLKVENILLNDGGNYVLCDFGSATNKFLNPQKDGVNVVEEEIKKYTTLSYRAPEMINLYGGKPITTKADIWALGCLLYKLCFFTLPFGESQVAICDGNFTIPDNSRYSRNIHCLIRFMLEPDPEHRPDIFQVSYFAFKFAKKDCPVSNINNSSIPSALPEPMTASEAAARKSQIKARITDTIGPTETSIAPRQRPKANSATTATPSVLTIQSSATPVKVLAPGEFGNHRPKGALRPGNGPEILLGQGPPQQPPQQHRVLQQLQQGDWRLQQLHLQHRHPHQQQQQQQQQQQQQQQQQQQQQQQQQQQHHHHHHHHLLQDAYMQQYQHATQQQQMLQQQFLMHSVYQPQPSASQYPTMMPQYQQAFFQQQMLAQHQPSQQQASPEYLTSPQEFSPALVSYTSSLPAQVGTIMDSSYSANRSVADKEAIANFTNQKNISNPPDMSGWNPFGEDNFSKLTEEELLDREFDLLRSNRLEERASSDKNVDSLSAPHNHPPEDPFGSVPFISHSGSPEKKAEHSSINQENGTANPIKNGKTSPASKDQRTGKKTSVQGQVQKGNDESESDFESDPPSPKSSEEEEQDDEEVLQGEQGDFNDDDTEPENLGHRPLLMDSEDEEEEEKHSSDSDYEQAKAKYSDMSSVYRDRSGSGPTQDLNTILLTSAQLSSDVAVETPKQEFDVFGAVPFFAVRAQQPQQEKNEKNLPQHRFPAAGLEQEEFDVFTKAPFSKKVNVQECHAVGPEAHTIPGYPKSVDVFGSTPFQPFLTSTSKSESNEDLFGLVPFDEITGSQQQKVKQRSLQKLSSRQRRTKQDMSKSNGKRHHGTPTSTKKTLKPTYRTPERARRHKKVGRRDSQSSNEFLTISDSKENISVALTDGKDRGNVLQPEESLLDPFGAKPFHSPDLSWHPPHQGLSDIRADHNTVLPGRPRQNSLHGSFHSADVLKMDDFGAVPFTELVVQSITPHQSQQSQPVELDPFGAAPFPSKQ
Sequence of Tyrosine-protein kinase HCK (Homo sapiens) (P08631 2-526 limits assumed): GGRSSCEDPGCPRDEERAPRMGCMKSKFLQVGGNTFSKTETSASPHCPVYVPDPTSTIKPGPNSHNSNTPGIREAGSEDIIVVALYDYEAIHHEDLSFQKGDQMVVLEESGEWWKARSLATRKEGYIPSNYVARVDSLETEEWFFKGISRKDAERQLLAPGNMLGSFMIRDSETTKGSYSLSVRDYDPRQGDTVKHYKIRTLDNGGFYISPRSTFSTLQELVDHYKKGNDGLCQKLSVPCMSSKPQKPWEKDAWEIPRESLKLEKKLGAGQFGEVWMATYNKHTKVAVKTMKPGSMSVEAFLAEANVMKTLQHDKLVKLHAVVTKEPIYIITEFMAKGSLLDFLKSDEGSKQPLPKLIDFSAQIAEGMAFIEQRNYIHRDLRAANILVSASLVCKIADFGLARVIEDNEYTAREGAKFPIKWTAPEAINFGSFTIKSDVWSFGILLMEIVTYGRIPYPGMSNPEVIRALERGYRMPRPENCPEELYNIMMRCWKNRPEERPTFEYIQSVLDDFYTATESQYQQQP

In [1], `Cc1cc(F)c(C(=O)Nc2cccc(-c3nncn3C(C)C)n2)cc1-n1cnc(C2CC2)c1` returned a % of control of 100%. Regarding `O=C(NOC[C@H](O)CO)c1ccc(F)c(F)c1Nc1ccc(I)cc1F`, the % of control in assay [2] and in [3] was 100% in each case. As for `CNC(=O)Nc1ccc(-c2nc(N3CC4CCC(C3)O4)c3cnn(C4CCC5(CC4)OCCO5)c3n2)cc1`, in [4], the % of inhibition was 3%. For the same compound, the % of control in assay [5] worked out at 100%. On to `Cc1cc([C@@H](C)Nc2ccccc2C(=O)O)c2nc(N3CCOCC3)cc(=O)n2c1` [AZD-6482], for which, in assay [6], the % of control was 94%.

For the compound `CC[C@@H]1[C@H](F)C(=O)N[C@@H]1COc1nccc2cc(C(N)=O)c(OC)cc12` [ZIMLOVISERTIB], the % of inhibition in assay [7] (at 0.01 µM) is -7%; in [7] (at 0.04 µM), -38.7%; in [7] (at 0.2 µM), -5.5%; in assay [7] (at 1 µM), -14.3%; in [7] (at 5 µM), -6.5%. Consider `Cc1ccc(-c2ccc3c(ccc4sc5c(c43)NC[C@@H](C)NC5=O)n2)cn1`, for which the % of inhibition in assay [8] turned out to be 35%. Consider `O[C@H]1CC[C@H](Nc2ncc3nc(Nc4c(F)cc(F)cc4F)n([C@H]4CCOC4)c3n2)CC1`, for which the % of control in assay [9] came out at 100%. For `CCC(=O)N1CCN(c2ccc(-n3c(=O)ccc4cnc5ccc(-c6cnc7ccccc7c6)cc5c43)cc2C(F)(F)F)CC1`, in assay [10], the % of control came to 77%. In assay [11], `Nc1cnc(N2CCc3cc(S(=O)(=O)Nc4c(F)cc(Cl)cc4F)cc(N4CCCC4=O)c32)nc1` [TP-020n] registered a % of control of 100%.
